The values below come from patent US10722520B2, “Heterocyclic compounds and their use in preventing or treating bacterial infections” (MUTABILIS, priority 2016, dated 2020).

In experiment [1] the test system is E. cloacae P99. Description: MIC of compound alone, broth microdilution. The format is cell-based. The following applies: strain P99, compound alone; for MIC: Enterobacter cloacae, read-out: MIC compounds of the invention alone. The procedure, abridged: (§1)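 Exponential-phase inoculum, 5×10^5 cfu/mL final, in cation-supplemented MHB; 35° C in air for 16-20 h. MIC: lowest concentration giving no visible growth.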
For orientation: Broth dilution looks for growth in wells or tubes with falling amounts of substance.

The subject of experiment [2] is E. coli 190317. The experiment can be described thus: MIC of compound alone, broth microdilution. The format is cell-based. The following applies: strain 190317, compound alone; for MIC: Escherichia coli, read-out: MIC compounds of the invention alone. The essentials: as §1
Experiment [3] concerns K. pneumoniae 6299. Description: MIC of compound alone, broth microdilution. The experiment is classed as cell-based. As to conditions: strain 6299, compound alone; for MIC: Klebsiella pneumoniae, read-out: MIC compounds of the invention alone. The essentials:
as §1

In experiment [4] the test system is K. pneumoniae BAA-1898. Description: MIC of compound alone, broth microdilution. The following applies: strain BAA-1898, compound alone; for MIC: Klebsiella pneumoniae, BAA1898, read-out: MIC compounds of the invention alone. The format is cell-based. The procedure, abridged:
as §1

In experiment [5] the test system is P. aeruginosa CIP107051. Description: MIC of compound alone, broth microdilution. The experiment is classed as cell-based. The following applies: strain CIP107051, compound alone; for MIC: Pseudomonas aeruginosa, read-out: MIC compounds of the invention alone. The essentials: as §1
The subject of experiment [6] is E. cloacae P99. The experiment can be described thus: MIC of ceftazidime (CAZ) at fixed concentration of compound (synergy), broth microdilution. The following applies: strain P99; MIC of CAZ, compound fixed at 4 μg/mL. The experiment is classed as cell-based. On the procedure:
(§2) Log phase bacterial suspensions were adjusted to a final density of 5×10^5 cfu/mL in cation-adjusted Mueller-Hinton broth (Becton-Dickinson) and added to each well (98 μL). Microplates were incubated for 16-20 h at 35° C. in ambient air. The MIC of the compounds was defined as the lowest concentration of said compounds that prevented bacterial growth as read by visual inspection.

Experiment [7] relates to E. coli 190317. The experiment is described as above. The experiment is classed as cell-based. The following applies: strain 190317; MIC of CAZ, compound fixed at 4 μg/mL. On the procedure: as §2
Experiment [8] relates to K. pneumoniae 6299. The experiment is described as above. The experiment is classed as cell-based. The following applies: strain 6299; MIC of CAZ, compound fixed at 4 μg/mL. On the procedure:
as §2

Experiment [9] has as its system K. pneumoniae BAA-1898. The experiment is described as above. The experiment is classed as cell-based. The following applies: strain BAA-1898; MIC of CAZ, compound fixed at 4 μg/mL. On the procedure: as §2
The subject of experiment [10] is P. aeruginosa CIP107051. Described as above. The experiment is classed as cell-based. The following applies: strain CIP107051; MIC of CAZ, compound fixed at 4 μg/mL. On the procedure:
as §2

The target in experiment [11] is T1, OXA-15 (Pseudomonas aeruginosa, UniProt Q51574). As to conditions: read-out: IC50 β-lactamase OXA-15; class (D); nitrocefin 200 μM, 30-min pre-incubation, enzyme 0.4 nM.
The next experiment deals with TEM-1 (Escherichia coli, UniProt P62593).
For the next experiment, the target named is SHV-1 (Klebsiella pneumoniae, UniProt P0AD64).
The target in a further experiment is CTX-M-15 (Escherichia coli, UniProt Q9EXV5).
The next experiment concerns the target KPC-2 (Klebsiella pneumoniae, UniProt Q9F663).
A further experiment addresses OXA-1 (Escherichia coli, UniProt P13661).
Another experiment addresses OXA-11 (Pseudomonas aeruginosa, UniProt Q06778).
For a further experiment, the target named is OXA-48 (Klebsiella pneumoniae, UniProt Q6XEC0).
In the next experiment the target is CMY-37 (Citrobacter freundii, UniProt P05193). The following applies: read-out: IC50 β-lactamase CMY-37; class (C); nitrocefin 200 μM, 30-min pre-incubation, enzyme 0.2 nM.
In a further experiment the target is AmpC (P99) (Enterobacter cloacae, UniProt P05364). Description: biochemical.
A further experiment addresses AmpC (PAE) (Pseudomonas aeruginosa, UniProt P24735). Description: biochemical.
The target in experiment [12] is T1, OXA-15. Description: biochemical.
Setting [13] is: read-out: IC50 β-lactamase TEM-1, class (A), nitrocefin 200 μM, 30-min pre-incubation, enzyme 0.1 nM.
The mark [14] stands for this setting: read-out: IC50 β-lactamase SHV-1, class (A), nitrocefin 200 μM, 30-min pre-incubation, enzyme 0.075 nM.
Setting [15] is: read-out: IC50 β-lactamase CTX-M-15, class (A), nitrocefin 200 μM, 30-min pre-incubation, enzyme 0.4 nM.
[16] abbreviates: read-out: IC50 β-lactamase KPC-2, class (A), nitrocefin 200 μM, 30-min pre-incubation, enzyme 1 nM.
Where [17] appears, read: read-out: IC50 β-lactamase OXA-1, class (D), nitrocefin 200 μM, 30-min pre-incubation, enzyme 0.2 nM.
Where [18] appears, read: read-out: IC50 β-lactamase OXA-11, class (D), nitrocefin 200 μM, 30-min pre-incubation, enzyme 1.2 nM.
Where [19] appears, read: read-out: IC50 β-lactamase OXA-48, class (D), nitrocefin 200 μM, 30-min pre-incubation, enzyme 0.3 nM.

Structures can show the parent of a compound that is named as a salt. Where two headings read alike, the source gives them in different places.

By IC50 is commonly meant the point on the concentration scale where inhibition reaches its midpoint. For “sodium (7-oxo-3-(3-(methoxycarbamoyl)-pyrazol-1-yl)-1,6-diazabicyclo[3.2.1]oct-3-en-6-yl) sulfate and sodium (7-oxo-3-(5-(methoxycarbamoyl)-pyrazol-1-yl)-1,6-diazabicyclo[3.2.1]oct-3-en-6-yl) sulfate [Example 27]”, the “MIC compounds of the invention alone” value in the experiment on E. cloacae P99 [1] is 16 µg/mL; with E. coli 190317 [2], 8 µg/mL; with K. pneumoniae 6299 [3], 32 µg/mL; with K. pneumoniae BAA-1898 [4], 32 µg/mL; with P. aeruginosa CIP107051 [5] it was more than 32 µg/mL. The “MIC combination of CAZ and compounds of the invention at 4 μg/mL” value was 2 µg/mL in the experiment on E. cloacae P99 [6]; 0.25 µg/mL with E. coli 190317 [7]; 0.5 µg/mL in the experiment on K. pneumoniae 6299 [8]; 16 µg/mL with K. pneumoniae BAA-1898 [9]; 16 µg/mL with P. aeruginosa CIP107051 [10]. In addition, the 50% inhibitory concentration (IC50) on OXA-15 [11] worked out at 110 nM; at TEM-1 (setting [13]), 1.1 nM; at SHV-1 (setting [14]), 4.8 nM; on CTX-M-15 (setting [15]), 1.2 nM; on KPC-2 (setting [16]), 10 nM; on OXA-1 (setting [17]), 130 nM. In addition, the IC50 at OXA-11 (setting [18]) turned out to be 69 nM; at OXA-48 (setting [19]), 6.1 nM.

As to “sodium [3-[3-[2-[tert-butyl(dimethyl)silyl]oxyethyl]pyrazol-1-yl]-7-oxo-1,6-diazabicyclo[3.2.1]oct-3-en-6-yl]sulfate [Example 69]”, the “MIC compounds of the invention alone” value is 32 µg/mL in the experiment on E. cloacae P99 [1]; 4 µg/mL in the experiment on E. coli 190317 [2]; 32 µg/mL with K. pneumoniae 6299 [3]; 32 µg/mL in the experiment with K. pneumoniae BAA-1898 [4]; more than 32 µg/mL in the experiment on P. aeruginosa CIP107051 [5]. Further, the “MIC combination of CAZ and compounds of the invention at 4 μg/mL” value was 1 µg/mL with E. cloacae P99 [6]; not above 0.25 µg/mL with E. coli 190317 [7]; 1 µg/mL with K. pneumoniae 6299 [8]; 64 µg/mL in the experiment with K. pneumoniae BAA-1898 [9]; 8 µg/mL in the experiment on P. aeruginosa CIP107051 [10]. Also, the half-inhibitory concentration (IC50) on OXA-15 [11] came out at 230 nM; at TEM-1 (setting [13]) it was 0.61 nM; on SHV-1 (setting [14]), 2.3 nM; on CTX-M-15 (setting [15]) it was 0.95 nM; at KPC-2 (setting [16]), 32 nM; at OXA-1 (setting [17]), 310 nM. The half-inhibitory concentration (IC50) on OXA-11 (setting [18]) was 120 nM; on OXA-48 (setting [19]), 14 nM.

By MIC is commonly meant the smallest concentration in the dilution series that meets the test's criterion for growth inhibition. Consider `O=C(Nc1ccn(C2=CC3CN(C2)C(=O)N3OS(=O)(=O)O)n1)c1cncs1` (stereo not drawn) [Example 77, [3-[3-[thiazole-5-carbonyl]amino]pyrazol-1-yl]-7-oxo-1,6-diazabicyclo[3.2.1]oct-3-en-6-yl]hydrogen sulfate], for which the minimum inhibitory concentration (MIC) in the experiment on E. cloacae P99 [1], with E. coli 190317 [2], in the experiment on K. pneumoniae 6299 [3], in the experiment on K. pneumoniae BAA-1898 [4] and in the experiment on P. aeruginosa CIP107051 [5] was more than 32 µg/mL in each case. Besides, the IC50 was 7.1 nM at CMY-37; 11 nM against AmpC (P99); 58 nM at AmpC (PAE); 46 nM on OXA-15 [12]; 1.1 nM at TEM-1; 5.2 nM on SHV-1. The half-maximal inhibitory concentration (IC50) on CTX-M-15 was 1.5 nM; at KPC-2, 11 nM; at OXA-1, 140 nM; on OXA-11 it was 16 nM; against OXA-48 it was 7.8 nM.

On to `NCCc1cnn(C2=CC3CN(C2)C(=O)N3OS(=O)(=O)O)c1` (stereo not drawn) [Example 41, [3-[4-(2-aminoethyl)pyrazol-1-yl]-7-oxo-1,6-diazabicyclo[3.2.1]oct-3-en-6-yl]hydrogen sulfate], for which the MIC is 4 µg/mL with E. cloacae P99 [1]; 2 µg/mL with E. coli 190317 [2]; more than 32 µg/mL in the experiment on K. pneumoniae 6299 [3]; more than 32 µg/mL in the experiment on K. pneumoniae BAA-1898 [4]; 32 µg/mL in the experiment on P. aeruginosa CIP107051 [5]. Further, the half-maximal inhibitory concentration (IC50) was determined as 21 nM on CMY-37; 36 nM against AmpC (P99); 88 nM against AmpC (PAE); 40 nM on OXA-15 [12]; 0.58 nM at TEM-1; 4.5 nM at SHV-1. Moreover, the half-maximal inhibitory concentration (IC50) against CTX-M-15 amounted to 0.91 nM; on KPC-2, 57 nM; at OXA-1, 750 nM; against OXA-11, 180 nM; against OXA-48, 8.9 nM.

As to `CC(=NOCCN)c1ccn(C2=CC3CN(C2)C(=O)N3OS(=O)(=O)O)n1` (mixture of isomers) [Example 29, (7-oxo-3-(3-[(Z,E)-N-(2-aminoethoxy)-C-methyl-carbonimidoyl]-pyrazol-1-yl)-1,6-diazabicyclo[3.2.1]oct-3-en-6-yl) hydrogen sulfate], the minimal inhibitory concentration (MIC) with E. cloacae P99 [1] is 32 µg/mL; in the experiment on E. coli 190317 [2] it was 8 µg/mL; in the experiment on K. pneumoniae 6299 [3], more than 32 µg/mL; with K. pneumoniae BAA-1898 [4], 32 µg/mL; in the experiment with P. aeruginosa CIP107051 [5], more than 32 µg/mL. For the same compound, the half-maximal inhibitory concentration (IC50) at CMY-37 was determined as 35 nM; against AmpC (P99) it was 25 nM; against AmpC (PAE), 190 nM; on OXA-15 [12] it was 51 nM; on TEM-1, 0.21 nM; on SHV-1, 1.1 nM. Moreover, the IC50 against CTX-M-15 was found to be 0.55 nM; on KPC-2 it was 8.7 nM; against OXA-1 it was 150 nM; at OXA-11, 31 nM; at OXA-48, 3 nM.
